Results on four compounds are retold here after patent US20190174760A1, “N-ALKYLSULFONYL CONDENSED HETEROCYCLIC COMPOUND OR SALT THEREOF, INSECTICIDE COMPRISING THE COMPOUND, AND METHOD FOR USING THE INSECTICIDE” (Nihon Nohyaku Co., Ltd., priority 2016, published 2019).

The mortality is the share of the test organisms that died.

The subject of one test is Laodelphax striatellus. The test is described as follows: Insecticidal test on Laodelphax striatellus (rice seedling dip). It is filed as in vivo. To be noted: 192 h, rice seedlings dipped 30 seconds, 3rd-instar larvae, 8 days after inoculation, read-out: insecticidal efficacy (corrected mortality rate) on Laodelphax striatellus. An excerpt: Insecticidal Test on Laodelphax striatellus
The compounds represented by the general formula (1) of the present invention or salts thereof were separately dispersed in water and diluted to 500 ppm. Rice plant seedlings (variety: Nihonbare) were dipped in the agrochemical dispersions for 30 seconds. After air-dried, each seedling was put into a separate glass test tube and inoculated with ten 3rd-instar larvae of Laodelphax striatellus, and then the glass test tubes were capped with cotton plugs. At 8 days after the inoculation, the numbers of surviving larvae and dead larvae were counted, the corrected mortality rate was calculated according to the formula shown below, and the insecticidal efficacy was evaluated according to the criteria shown below.
Corrected mortality rate (%)=100×(Survival rate in a non-treatment plot−Survival rate in a treatment plot)/Survival rate in a non-treatment plot [Math. 2]
A: the corrected mortality rate is 100%. B: the corrected mortality rate is 90 to 99%. C: the corrected mortality rate is 80 to 89%. D: the corrected mortality rate is 50 to 79%.

In the next test the test system is Plutella xylostella. Kind of test: Insecticidal test on Plutella xylostella (dip of Chinese cabbage seedlings with laid eggs). It is filed as in vivo. To be noted: 144 h, seedlings with laid eggs dipped about 30 seconds, 25° C., 6 days after dip treatment, read-out: insecticidal efficacy (corrected mortality rate) on Plutella xylostella. An excerpt: Insecticidal Test on Plutella xylostella
Adults of Plutella xylostella were released onto Chinese cabbage seedlings and allowed to lay eggs thereon. At 2 days after the release of the adults, the Chinese cabbage seedlings with laid eggs were dipped for about 30 seconds in agrochemical formulations diluted to 500 ppm, each of which contained a different compound represented by the general formula (1) of the present invention as an active ingredient. After air-dried, the seedlings were kept in a thermostatic chamber at 25° C. At 6 days after the dip treatment, the number of hatched larvae per plot was counted, the mortality rate was calculated according to the formula shown below, and the insecticidal efficacy was evaluated according to the criteria of Test Example 2. This test was conducted in triplicate using 10 adults of Plutella xylostella per plot.
Corrected mortality rate (%)=100×(Number of hatched larvae in a non-treatment plot−Number of hatched larvae in a treatment plot)/Number of hatched larvae in a non-treatment plot [Math. 3]

In the case of `CCS(=O)(=O)n1c(-c2nc3cc(C(F)(F)C(F)(F)F)nnc3n2C)cc2ccccc21` [Compound 1-33, 2-(1-ethylsulfonylindol-2-yl)-3-methyl-6-pentafluoroethyl-3H-imidazo[4,5-c]pyridazine], the mortality at 500 ppm in the test with Laodelphax striatellus and with Plutella xylostella was 100% each time.

For `CCS(=O)(=O)n1c(-c2nc3cc(C(F)(F)C(F)(F)F)nnc3n2C)cc2ccc(F)cc21` [Compound 1-65, 2-(1-ethylsulfonyl-6-fluoroindol-2-yl)-3-methyl-6-pentafluoroethyl-3H-imidazo[4,5-c]pyridazine], the mortality at 500 ppm with Laodelphax striatellus and in the test on Plutella xylostella was 100% throughout.

As for `CCS(=O)(=O)n1c(-c2nc3cc(C(F)(F)F)cnc3n2C)cc2cc(C(F)(F)F)ccc21` [Compound 2-11, 2-(1-ethylsulfonyl-5-trifluoromethylindol-2-yl)-3-methyl-6-trifluoromethyl-3H-imidazo[4,5-b]pyridine], the mortality at 500 ppm in the test on Laodelphax striatellus and in the test with Plutella xylostella was 100% throughout.

Consider `CCS(=O)(=O)n1c(-c2nc3cc(SC(F)(F)F)ccc3o2)cc2ccccc21` [Compound 3-1, 2-(1-ethylsulfonylindol-2-yl)-5-trifluoromethylthiobenzo[d]oxazole], for which the mortality at 500 ppm in the test with Plutella xylostella was determined as 100%.
